Values of other authors, collected in publication PMC9851200, “Multiparameter phenotypic screening for endogenous TFEB and TFE3 translocation identifies novel chemical series modulating lysosome function” (Autophagy, 2022).
Where two headings read alike, the source gives them in different places.

Key:
Parameters in all cases: method as in original PKIS2 published data
[1] = target: kinases (KINOMEscan panel) (Homo sapiens, UniProt Q86UE8); conditions: kinase TLK2; Published KINOMEscan; ref original PKIS2 published data; cited from earlier work
Sequence of kinases (KINOMEscan panel) (Homo sapiens, UniProt Q86UE8) (Q86UE8 whole entry): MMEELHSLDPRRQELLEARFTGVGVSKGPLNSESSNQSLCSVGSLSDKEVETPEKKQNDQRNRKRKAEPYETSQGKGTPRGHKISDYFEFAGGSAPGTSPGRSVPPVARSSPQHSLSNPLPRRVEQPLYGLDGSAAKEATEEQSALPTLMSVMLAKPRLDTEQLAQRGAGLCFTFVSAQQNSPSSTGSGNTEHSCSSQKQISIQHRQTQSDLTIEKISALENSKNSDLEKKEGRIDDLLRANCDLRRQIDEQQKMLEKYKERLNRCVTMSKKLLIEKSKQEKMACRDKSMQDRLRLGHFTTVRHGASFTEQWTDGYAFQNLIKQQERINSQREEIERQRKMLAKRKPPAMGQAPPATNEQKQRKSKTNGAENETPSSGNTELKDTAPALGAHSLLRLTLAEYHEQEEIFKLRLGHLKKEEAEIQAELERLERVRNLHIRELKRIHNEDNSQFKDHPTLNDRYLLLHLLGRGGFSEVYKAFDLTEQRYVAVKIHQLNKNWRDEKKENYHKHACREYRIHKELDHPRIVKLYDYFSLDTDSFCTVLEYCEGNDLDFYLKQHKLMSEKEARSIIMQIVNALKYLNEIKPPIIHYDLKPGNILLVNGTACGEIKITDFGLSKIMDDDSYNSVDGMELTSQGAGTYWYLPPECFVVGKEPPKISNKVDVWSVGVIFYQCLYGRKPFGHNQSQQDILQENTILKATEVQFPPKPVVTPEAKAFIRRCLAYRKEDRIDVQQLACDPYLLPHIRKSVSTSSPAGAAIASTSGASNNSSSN

[2] = target: T1, kinases (KINOMEscan panel) (Homo sapiens, UniProt Q9UBE8); conditions: NLK; Published KINOMEscan; ref original PKIS2 published data; cited from earlier work
T1 sequence (Q9UBE8 1-527): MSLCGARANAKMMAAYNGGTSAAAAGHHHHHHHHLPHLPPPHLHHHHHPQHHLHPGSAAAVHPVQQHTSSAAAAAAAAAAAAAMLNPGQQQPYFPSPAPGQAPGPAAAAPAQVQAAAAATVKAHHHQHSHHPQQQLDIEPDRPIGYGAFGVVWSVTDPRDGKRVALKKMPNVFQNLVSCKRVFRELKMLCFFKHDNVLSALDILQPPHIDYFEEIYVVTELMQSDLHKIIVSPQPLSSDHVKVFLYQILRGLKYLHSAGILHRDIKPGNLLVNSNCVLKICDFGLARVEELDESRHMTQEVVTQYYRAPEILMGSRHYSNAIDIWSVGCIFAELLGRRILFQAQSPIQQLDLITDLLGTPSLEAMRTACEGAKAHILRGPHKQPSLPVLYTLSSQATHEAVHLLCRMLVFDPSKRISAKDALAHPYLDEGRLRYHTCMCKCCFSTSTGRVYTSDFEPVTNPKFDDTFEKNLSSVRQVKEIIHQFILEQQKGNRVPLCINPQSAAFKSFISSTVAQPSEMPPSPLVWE

[3] = system: kinases (KINOMEscan panel); conditions: Published KINOMEscan, ref original PKIS2 published data, cited from earlier work
[4] = target: T2, kinases (KINOMEscan panel) (Homo sapiens, UniProt P33981); conditions: Published KINOMEscan; ref original PKIS2 published data; cited from earlier work
T2 sequence (P33981 1-857): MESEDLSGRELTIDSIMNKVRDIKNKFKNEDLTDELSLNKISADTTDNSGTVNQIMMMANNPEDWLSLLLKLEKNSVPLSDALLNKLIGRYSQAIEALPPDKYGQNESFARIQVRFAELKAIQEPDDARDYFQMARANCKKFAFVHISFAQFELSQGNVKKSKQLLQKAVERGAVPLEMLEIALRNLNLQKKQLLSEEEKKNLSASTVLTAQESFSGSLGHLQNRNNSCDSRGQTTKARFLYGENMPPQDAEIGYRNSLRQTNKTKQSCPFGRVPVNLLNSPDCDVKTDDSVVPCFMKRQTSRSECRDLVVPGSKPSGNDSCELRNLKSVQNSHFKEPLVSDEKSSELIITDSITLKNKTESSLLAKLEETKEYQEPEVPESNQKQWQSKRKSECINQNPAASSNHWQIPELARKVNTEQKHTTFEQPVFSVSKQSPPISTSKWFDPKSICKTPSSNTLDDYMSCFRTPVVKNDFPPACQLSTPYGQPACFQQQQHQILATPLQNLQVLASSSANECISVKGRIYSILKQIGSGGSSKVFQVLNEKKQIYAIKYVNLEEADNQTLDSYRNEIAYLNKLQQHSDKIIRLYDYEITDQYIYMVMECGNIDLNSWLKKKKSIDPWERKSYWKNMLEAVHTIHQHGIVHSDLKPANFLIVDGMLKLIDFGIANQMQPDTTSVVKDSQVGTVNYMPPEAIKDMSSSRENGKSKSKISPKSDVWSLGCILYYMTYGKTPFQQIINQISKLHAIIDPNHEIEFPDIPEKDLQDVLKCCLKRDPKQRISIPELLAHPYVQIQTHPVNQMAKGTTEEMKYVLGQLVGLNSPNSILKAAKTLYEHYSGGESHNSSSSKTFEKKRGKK

[5] = target: T3, kinases (KINOMEscan panel) (Homo sapiens, UniProt P29320); conditions: kinase EPHA3; Published KINOMEscan; ref original PKIS2 published data; cited from earlier work
T3 sequence (P29320 21-983): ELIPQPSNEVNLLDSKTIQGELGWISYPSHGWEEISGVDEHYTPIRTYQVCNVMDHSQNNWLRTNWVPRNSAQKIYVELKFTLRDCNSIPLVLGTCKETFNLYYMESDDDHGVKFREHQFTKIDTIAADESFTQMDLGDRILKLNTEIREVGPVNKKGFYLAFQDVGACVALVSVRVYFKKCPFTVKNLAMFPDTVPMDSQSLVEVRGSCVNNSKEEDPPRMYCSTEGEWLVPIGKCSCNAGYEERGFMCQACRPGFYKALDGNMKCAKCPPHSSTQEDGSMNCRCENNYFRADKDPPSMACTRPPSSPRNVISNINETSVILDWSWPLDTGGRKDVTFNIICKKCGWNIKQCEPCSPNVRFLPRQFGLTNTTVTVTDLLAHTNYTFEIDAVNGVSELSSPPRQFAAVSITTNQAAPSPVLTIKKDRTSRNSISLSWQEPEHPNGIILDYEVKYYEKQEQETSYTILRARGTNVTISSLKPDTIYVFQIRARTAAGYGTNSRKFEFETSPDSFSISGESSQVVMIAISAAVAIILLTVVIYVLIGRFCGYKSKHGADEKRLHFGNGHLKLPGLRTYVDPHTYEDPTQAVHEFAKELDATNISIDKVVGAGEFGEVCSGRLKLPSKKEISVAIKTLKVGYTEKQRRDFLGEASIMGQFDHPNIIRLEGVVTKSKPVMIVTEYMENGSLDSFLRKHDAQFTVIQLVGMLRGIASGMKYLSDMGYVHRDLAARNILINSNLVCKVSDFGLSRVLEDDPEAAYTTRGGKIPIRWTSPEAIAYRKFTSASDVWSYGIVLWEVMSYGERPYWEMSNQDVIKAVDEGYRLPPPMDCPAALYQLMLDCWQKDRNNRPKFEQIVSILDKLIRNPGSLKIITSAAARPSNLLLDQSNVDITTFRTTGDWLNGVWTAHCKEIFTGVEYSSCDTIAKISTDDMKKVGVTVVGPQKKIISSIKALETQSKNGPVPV

[6] = target: kinases (KINOMEscan panel) (Homo sapiens, UniProt P24941); conditions: CDK2; Published KINOMEscan; ref original PKIS2 published data; cited from earlier work

Compound: Cc1cccc(-c2nc(Nc3ccncc3)c3ccccc3n2)n1 [NK215]
- KINOMEscan TLK2 [1]: 0
- KINOMEscan NLK [2]: 47
- KINOMEscan PRKAA2 [3]: 0
- KINOMEscan PRKAA2 ([3]; kinase PRKAA2): 12
- KINOMEscan TTK [4]: 10
- KINOMEscan EPHA3 [5]: 0
- KINOMEscan CDK2 [6]: 0
